Source: US20240383852A1, “ANTI-VIRAL COMPOUNDS” (INFEX Therapeutics Limited, priority 2021, published 2024)
Counter-ions that a name gives are not always drawn. Like-named read-outs stand apart in the source and are kept apart here.

Assays:
SARS-CoV-2 PLpro = molecular target: T1, SARS-CoV-2 PLpro (Severe acute respiratory syndrome coronavirus 2, UniProt P0DTD1); assay: biochemical
T1 construct: containing 60 nM papain-like protease

[1] = test system: human Hep G2 cells (ATCC HB-8065); assay: Cytotoxicity in Hep G2 cells (CellTiter-Glo); assay type: cell-based
[2] = 60 nM papain-like protease, 50 μM Z-RLRGG-AMC, pH 7.5, 37° C., read-out: SARS-CoV-2 PLpro IC50
[3] = Hep G2 cells, 100 μM test article, 24-hour exposure

Structure (SMILES) | IC50 (SARS-CoV-2 PLpro; [2]) [µM] | % Cell Viability [1, 3] [%] | IC50 (SARS-CoV-2 PLpro) [µM] | % Cell Viability ([1]; human, 24 h, 100 μM) [%]
COCCN1CCN(c2ccc(C)c(C(=O)N[C@H](C)c3cccc(-c4cnn(C)c4)c3)c2)CC1 [Example 114, 5-[4-(2-Methoxyethyl)piperazin-1-yl]-2-methyl-N-[(1R)-1-[3-(1-methylpyrazol-4-yl)phenyl]ethyl]benzamide] | < 5 | 59.0 | – | –
Cc1ccc(N2CCN(C3CC3)CC2)cc1C(=O)N[C@H](C)c1cccc2ccccc12 [Example 115, 5-(4-Cyclopropylpiperazin-1-yl)-2-methyl-N-[(1R)-1-(1-naphthyl)ethyl]benzamide] | < 2 | 26.7 | – | –
Cc1ccc(N2CCOCC2)cc1C(=O)N[C@H](C)c1cccc2ccccc12 [Example 116, 2-Methyl-5-morpholino-N-[(1R)-1-(1-naphthyl)ethyl]benzamide] | < 10 | 66.6 | – | –
Cc1ccc(N2CCN(C3COC3)CC2)cc1C(=O)N[C@H](C)c1cccc2ccccc12 [Example 117, 2-Methyl-N-[(1R)-1-(1-naphthyl)ethyl]-5-[4-(oxetan-3-yl)piperazin-1-yl]benzamide] | < 5 | 61.1 | – | –
Cc1ccc(N2CCN(CC3CC3)CC2)cc1C(=O)N[C@H](C)c1cccc2ccccc12 [Example 118, 5-[4-(Cyclopropylmethyl)piperazin-1-yl]-2-methyl-N-[(1R)-1-(1-naphthyl)ethyl]benzamide] | < 2 | 6.6 | – | –
Cc1ccc(N2C[C@H]3C[C@@H]2CN3C)cc1C(=O)N[C@H](C)c1cccc2ccccc12 [Example 121, 2-Methyl-5-[(1R,4R)-5-methyl-2,5-diazabicyclo[2.2.1]heptan-2-yl]-N-[(1R)-1-(naphthalen-1-yl)ethyl]benzamide] | < 2 | 75.1 | – | –
Cc1ccc(N2C[C@H]3C[C@@H]2CN3C)cc1C(=O)N[C@H](C)c1cccc2c1OCO2 [Example 122, N-[(1R)-1-(1,3-benzodioxol-4-yl)ethyl]-2-methyl-5-[(1R,4R)-5-methyl-2,5-diazabicyclo[2.2.1]heptan-2-yl]benzamide] | < 5 | 95.4 | – | –
Cc1ccc(N2C[C@H]3C[C@@H]2CN3C)cc1C(=O)N[C@H](C)c1cccc(Br)c1 [Example 123, N-[(1R)-1-(3-bromophenyl)ethyl]-2-methyl-5-[(1R,4R)-5-methyl-2,5-diazabicyclo[2.2.1]heptan-2-yl]benzamide] | < 2 | 32.9 | – | –
Cc1ccc(N2CCN(C)CC2)c(C)c1C(=O)N[C@H](C)c1cccc2ccccc12 [Example 124, 2,6-Dimethyl-3-(4-methylpiperazin-1-yl)-N-[(1R)-1-(1-naphthyl)ethyl]benzamide] | < 2 | 37.4 | – | –
Cc1ccc(N2CCN3CCCC3C2)cc1C(=O)N[C@H](C)c1cccc2ccccc12 (stereo partly drawn) [Example 125, 5-(3,4,6,7,8,8a-Hexahydro-1H-pyrrolo[1,2-a]pyrazin-2-yl)-2-methyl-N-[(1R)-1-(1-naphthyl)ethyl]benzamide hydrochloride salt] | < 2 | 55.8 | – | –
Cc1ccc(N2CCN(C)C(C)C2)cc1C(=O)N[C@H](C)c1cccc2ccccc12 (stereo partly drawn) [Example 126, 5-(3,4-Dimethylpiperazin-1-yl)-2-methyl-N-[(1R)-1-(1-naphthyl)ethyl]benzamide] | < 2 | 62.8 | – | –
Cc1ccc(N2CCCNCC2)cc1C(=O)N[C@H](C)c1cccc2ccccc12 [Example 128, 5-(1,4-Diazepan-1-yl)-2-methyl-N-[(1R)-1-(1-naphthyl)ethyl]benzamide] | < 2 | 1.1 | – | –
Cc1ccc(N2CC[C@@H](N3CCCCC3)C2)cc1C(=O)N[C@H](C)c1cccc2ccccc12 [Example 129, 2-Methyl-N-[(1R)-1-(1-naphthyl)ethyl]-5-[(3R)-3-(1-piperidyl)pyrrolidin-1-yl]benzamide] | < 5 | 95.5 | – | –
C[C@@H](NC(=O)c1cc(N2CCN(C)CC2)ccc1Cl)c1cccc2ccccc12 [Example 130, 2-Chloro-5-(4-methylpiperazin-1-yl)-N-[(1R)-1-(1-naphthyl)ethyl]benzamide] | < 10 | 1.0 | – | –
C[C@@H]1CN(c2ccc(Cl)c(C(=O)N[C@H](C)c3cccc4ccccc34)c2)C[C@H](C)N1 [Example 133, 2-Chloro-5-[(3S,5R)-3,5-dimethylpiperazin-1-yl]-N-[(1R)-1-(1-naphthyl)ethyl]benzamide] | < 5 | 0.1 | – | –
C[C@@H](NC(=O)c1cc(N2CCNCC2)ccc1Cl)c1cccc2ccccc12 [Example 134, 2-Chloro-N-[(1R)-1-(1-naphthyl)ethyl]-5-piperazin-1-yl-benzamide] | < 2 | 0.8 | – | –
Cc1ccc(-c2ccnc(N3CCNCC3)c2)cc1C(=O)N[C@H](C)c1cccc2ccccc12 [Example 140, 2-Methyl-N-[(1R)-1-(1-naphthyl)ethyl]-5-(2-piperazin-1-yl-4-pyridyl)benzamide] | < 10 | 0.8 | – | –

Structure (SMILES) | IC50 (SARS-CoV-2 PLpro; [2]) [µM] | % Cell Viability [1, 3] [%] | IC50 (SARS-CoV-2 PLpro) [µM] | % Cell Viability ([1]; human, 24 h, 100 μM) [%]
C[C@@H](NC(=O)c1cc(C2=CCN(C)CC2)ccc1Cl)c1cccc2ccccc12 [Example 144, 2-Chloro-5-(1-methyl-3,6-dihydro-2H-pyridin-4-yl)-N-[(1R)-1-(1-naphthyl)ethyl]benzamide] | – | – | < 10 | 1.6
C[C@@H](NC(=O)c1cc(C2=CCNC2)ccc1Cl)c1cccc2ccccc12 [Example 146, 2-Chloro-5-(2,5-dihydro-1H-pyrrol-3-yl)-N-[(1R)-1-(1-naphthyl)ethyl]benzamide Hydrochloride Salt] | < 2 | 0.2 | – | –
C[C@@H](NC(=O)c1cc(C2CCNC2)ccc1Cl)c1cccc2ccccc12 (stereo partly drawn) [Example 147, 2-chloro-N-[(1R)-1-(1-naphthyl)ethyl]-5-pyrrolidin-3-yl-benzamide] | < 5 | 0.8 | – | –
Cc1ccc(C2=CCNCC2)cc1C(=O)N[C@H](C)c1cccc2ccccc12 [Example 154, 2-Methyl-N-[(1R)-1-(1-naphthyl)ethyl]-5-(1,2,3,6-tetrahydropyridin-4-yl)benzamide] | – | – | < 2 | 2.1
Cc1ccc(C2=CCNCC2)c(C)c1C(=O)N[C@H](C)c1cccc2ccccc12 [Example 155, 2,6-Dimethyl-N-[(1R)-1-(1-naphthyl)ethyl]-3-(1,2,3,6-tetrahydropyridin-4-yl)benzamide] | – | – | < 2 | 0.6
Cc1ccc(C2CCNCC2)cc1C(=O)N[C@H](C)c1cccc2ccccc12 [Example 156, 2-Methyl-N-[(1R)-1-(1-napthyl)ethyl]-5-(4-piperidyl)benzamide] | < 2 | 0.6 | – | –
Cc1ccc(C2CCN(C)CC2)cc1C(=O)N[C@H](C)c1cccc2ccccc12 [Example 157, 2-Methyl-5-(1-methyl-4-piperidyl)-N-[(1R)-1-(1-naphthyl)ethyl]benzamide] | < 2 | 1.5 | – | –
C[C@@H](NC(=O)c1cccc(N2CCNCC2)c1)c1cccc2ccccc12 [Example 158, N-[(1R)-1-(1-Naphthyl)ethyl]-3-piperazin-1-yl-benzamide Hydrochloride Salt] | < 5 | 0.8 | – | –
CC(=O)N1CCN(c2cccc(C(=O)N[C@H](C)c3cccc4ccccc34)c2)CC1 [Example 159, 3-(4-Acetylpiperazin-1-yl)-N-[(1R)-1-(1-naphthyl)ethyl]benzamide] | > 100 | 81.5 | – | –
COC(=O)CCN1CCN(c2cccc(C(=O)N[C@H](C)c3cccc4ccccc34)c2)CC1 [Example 160, Methyl 3-[4-[3-[[(1R)-1-(1-naphthyl)ethyl]carbamoyl]phenyl]piperazin-1-yl]propanoate] | < 100 | 101.8 | – | –
C[C@@H](NC(=O)c1cccc(N2CCN(CCC(=O)O)CC2)c1)c1cccc2ccccc12 [Example 161, 3-[4-[3-[[(1R)-1-(1-Naphthyl)ethyl]carbamoyl]phenyl]piperazin-1-yl]propanoic Acid] | < 20 | 97.9 | – | –
Cc1ccc(N2CCN(CCC(=O)O)CC2)cc1C(=O)N[C@H](C)c1cccc2ccccc12 [Example 162, 3-[4-[4-Methyl-3-[[(1R)-1-(1-naphthyl)ethyl]carbamoyl]phenyl]piperazin-1-yl]propanoic acid] | < 2 | 104.9 | – | –
Cc1ccc(N2CCCN(CCC(=O)O)CC2)cc1C(=O)N[C@H](C)c1cccc2ccccc12 [Example 163, 3-[4-[4-Methyl-3-[[(1R)-1-(1-naphthyl)ethyl]carbamoyl]phenyl]-1,4-diazepan-1-yl]propanoic acid] | < 5 | 122.4 | – | –
Cc1ccc(N2CCN(C)CC2)cc1C(=O)N[C@H](C)c1cccc(-c2ccc(N3CCN(CCC(=O)O)CC3)cc2)c1 [Example 165, 3-[4-[4-[3-[(1R)-1-[[2-Methyl-5-(4-methylpiperazin-1-yl)benzoyl]amino]ethyl]phenyl]phenyl]piperazin-1-yl]propanoic acid] | < 2 | 132 | – | –
Cc1ccc(N2CCN(C)CC2)cc1C(=O)N[C@H](C)c1cccc(N2CCN(CCC(=O)O)CC2)c1 [Example 166, 3-[4-[3-[(1R)-1-[[2-Methyl-5-(4-methylpiperazin-1-yl)benzoyl]amino]ethyl]phenyl]piper-azin-1-yl]propanoic acid] | < 10 | 100.9 | – | –
Cc1ccc(N2CCN(C)CC2)cc1C(=O)N[C@H](C)c1cccc(-c2cccc(N3CCN(CCC(=O)O)CC3)c2)c1 [Example 167, 3-[4-[3-[3-[(1R)-1-[[2-Methyl-5-(4-methylpiperazin-1-yl)benzoyl]amino]ethyl]phenyl]phe-nyl]piperazin-1-yl]propanoic acid] | < 2 | 110.4 | – | –
